The values that follow come from patent US7045532B2 (Millennium Pharmaceuticals, Inc., priority 1999, dated 2006).

Read-outs that look alike come from different tables or passages of the source.

The target in this assay is T1, ACE-2 (Homo sapiens, UniProt Q9BYF1).
T1 construct: a stop codon inserted after the serine immediately preceding the transmembrane domain; made in house; host or cells: CHO K1 cells (transient transfection, purified from conditioned medium)
Put plainly: ACE-2 Competitive Substrate Assay (ACS Assay). Format: biochemical.

Where [1] appears, read: Ki class, compounds tested in 5% DMSO, 12 compound concentrations, Ki=Kiapp/(1+[S]/Km), read-out: Human ACE-2 Activity.
[2] abbreviates: Table 3, very good ACE-2 inhibiting compounds, species not given, read-out: ACE-2 Activity, Ki.

T1 sequence (Q9BYF1 18-740 limits assumed): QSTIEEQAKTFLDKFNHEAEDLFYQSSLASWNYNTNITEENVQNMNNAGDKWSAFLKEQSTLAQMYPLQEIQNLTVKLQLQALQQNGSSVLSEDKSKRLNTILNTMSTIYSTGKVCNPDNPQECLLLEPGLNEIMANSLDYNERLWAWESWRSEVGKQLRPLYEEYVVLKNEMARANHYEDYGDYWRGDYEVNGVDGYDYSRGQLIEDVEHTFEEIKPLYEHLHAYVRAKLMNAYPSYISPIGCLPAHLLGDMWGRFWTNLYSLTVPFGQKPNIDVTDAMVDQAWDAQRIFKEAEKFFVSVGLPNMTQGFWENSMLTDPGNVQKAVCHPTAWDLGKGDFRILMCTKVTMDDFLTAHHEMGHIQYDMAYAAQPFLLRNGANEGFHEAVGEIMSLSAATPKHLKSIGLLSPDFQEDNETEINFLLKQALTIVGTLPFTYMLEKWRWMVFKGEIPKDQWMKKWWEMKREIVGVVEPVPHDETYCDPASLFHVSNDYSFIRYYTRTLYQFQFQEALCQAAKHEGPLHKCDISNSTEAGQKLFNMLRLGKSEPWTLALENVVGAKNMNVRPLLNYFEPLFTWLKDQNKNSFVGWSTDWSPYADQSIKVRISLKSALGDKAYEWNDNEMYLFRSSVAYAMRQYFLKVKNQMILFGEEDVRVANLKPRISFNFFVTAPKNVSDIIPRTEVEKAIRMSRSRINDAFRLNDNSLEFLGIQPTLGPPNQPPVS

For `CC(C)C[C@H](N[C@@H](Cn1ccn([C@H](C)c2ccccc2)c1=O)C(=O)O)C(=O)O` [MF, 2-[1-Carboxy-2-[2-oxo-3-(1-phenyl-ethyl)-2,3-dihydro-imidazol-1-yl]-ethylamino]-4-methyl-pentanoic acid], under setting [1], the Ki is over 500 nM.
Turning to `CC(C)C[C@H](N[C@@H](CC(=O)Nc1nc2cc(Cl)c(Cl)cc2s1)C(=O)O)C(=O)O` [MG, (S,S)-2-[1-Carboxy-2-(5,6-dichloro-benzothiazol-2-ylcarbamoyl)-ethylamino]-4-methyl-pentanoic acid], the Ki under setting [1] fell in the range of 100 to 500 nM.
In the case of `CC(C)C[C@H](N[C@@H](Cn1ccn(CC2CC2)c1=O)C(=O)O)C(=O)O` [MH, 2-[1-Carboxy-2-(3-cyclopropylmethyl-2-oxo-2,3-dihydro-imidazol-1-yl)-ethylamino]-4-methyl-pentanoic acid], the Ki under setting [1] was in the range of 100 to 500 nM.
With `CC(C)C[C@H](N[C@@H](Cc1cccc(-c2cc(Cl)cc(Cl)c2)c1)C(=O)O)C(=O)O` [MI, (S,S)-2-[1-Carboxy-2-(3,′5′-dichloro-biphenyl-3-yl)-ethylamino]-4-methyl-pentanoic acid], under setting [1], the Ki fell in the range of 100 to 500 nM.
Regarding `CC(C)C[C@H](N[C@@H](Cc1cccc(-c2ccsc2)c1)C(=O)O)C(=O)O` [MJ, (S,S)-2-[1-Carboxy-2-(3-thiophen-3-yl-phenyl)-ethylamino]-4-methyl-pentanoic acid], under setting [1], the Ki is over 500 nM.
Still for that read-out and setting: to `COc1cc(OC)cc(-c2cccc(C[C@H](N[C@@H](CC(C)C)C(=O)O)C(=O)O)c2)c1` [MK, (S,S)-2-[1-Carboxy-2-(3′,5′-dimethoxy-biphenyl-3-yl)-ethylamino]-4-methyl-pentanoic acid] belongs over 500 nM; to `COC(=O)[C@H](Cc1ccn(C(=O)OC(C)(C)C)n1)N[C@@H](CC(C)C)C(=O)OCc1ccccc1` [ML, 3-[2-(1-Benzyloxycarbonyl3-methyl-butylamino)-2-methoxycarbonyl-ethyl]-pyrazole-1-carboxylicacid tert-butyl ester], over 500 nM.
Take `COC(=O)[C@H](Cc1cncn1Cc1cc(Cl)cc(Cl)c1)N[C@@H](CC(C)C)C(=O)OC` [MM, 2-{2-[3-(3,5-Dichloro-benzyl)-3H-imidazol-4-yl]-1-methoxycarbonyl-ethylamino}-4-methyl-pentanoic acidmethyl ester]: the Ki runs as follows: under setting [1], under 100 nM; under setting [2], under 50 nM.
With `CC(C)C[C@H](N[C@@H](Cn1ccn(C2CCCCC2)c1=O)C(=O)O)C(=O)O` [MN, 2-[1-Carboxy-2-(3-cyclohexyl-2-oxo-2,3-dihydro-imidazol-1-yl)-ethylamino]-4-methyl-pentanoic acid], the Ki under setting [1] lay in the range of 100 to 500 nM.
Take `COc1ccc2nc(NC(=O)C[C@H](N[C@@H](CC(C)C)C(=O)O)C(=O)O)sc2c1` [MO, (S,S)-2-[1-Carboxy-2-(6-methoxy-benzothiazol-2-ylcarbamoyl)-ethylamino]-4-methyl-pentanoic acid]: the Ki under setting [1] fell in the range of 100 to 500 nM.
In the case of `CCOc1ccc2nc(NC(=O)C[C@H](N[C@@H](CC(C)C)C(=O)O)C(=O)O)sc2c1` [MP, (S,S)-2-[1-Carboxy-2-(6-ethoxy-benzothiazol-2-ylcarbamoyl)-ethylamino]-4-methyl-pentanoic acid], under setting [1], the Ki was 100 to 500 nM.
For the compound `CC(C)C[C@H](N[C@@H](CC(=O)Nc1nc2ccc(F)cc2s1)C(=O)O)C(=O)O` [MQ, 2-[1-Carboxy-2-(6-fluoro-benzothiazol-2-ylcarbamoyl)-ethylamino]-4-methyl-pentanoic acid], the Ki under setting [1] is under 100 nM and the Ki under setting [2] was under 50 nM.
For `CC(C)C[C@H](N[C@@H](CC(=O)Nc1nc2ccc(Br)cc2s1)C(=O)O)C(=O)O` [MR, 2-[2-(6-Bromo-benzothiazol-2-ylcarbamoyl]-1-carboxy-ethylamino]-4-methyl-pentanoic acid], in that order: under 100 nM and under 50 nM.
For `CC(C)C[C@H](N[C@@H](Cn1ccn(-c2cc(F)cc(F)c2)c1=O)C(=O)O)C(=O)O` [MS, 2-{1-Carboxy-2-[3-(3,5-difluoro-phenyl)-2-oxo-2,3-dihydro-imidazol-1-yl]-ethylamino}-4-methyl-pentanoic acid], the Ki under setting [1] is 100 to 500 nM.
For `CC(C)C[C@H](N[C@@H](CNC(=O)c1ccc2ccccc2c1)C(=O)O)C(=O)O` [MT, 2-(1-Carboxy-2-[(naphthalene-2-carbonyl)amino]-ethylamino)-4-methyl-pentanoic acid], the Ki under setting [1] is over 500 nM.
Same read-out and setting: as for `CC(C)C[C@H](N[C@@H](CNS(=O)(=O)c1ccc2ccccc2c1)C(=O)O)C(=O)O` [MU, 2-[1-Carboxy-2-(naphthalene-2-sulfonylamino)-ethylamino]-4-methyl-pentanoic acid], the figure is over 500 nM.
Take `CC(C)C[C@H](N[C@@H](Cc1ccnn1Cc1cc(Cl)cc(Cl)c1)C(=O)O)C(=O)O` [MV, 2-{1-carboxy-2-[2-(3,5-dichlorobenzyl)-2H-pyrazol-3-yl]-ethylamino}-4-methyl-pentanoic acid]: the Ki is, setting by setting: under setting [1], under 100 nM; under setting [2], under 50 nM.
Take `CC(C)C[C@H](N[C@@H](Cc1cccc(-c2cccc3ccccc23)c1)C(=O)O)C(=O)O` [MX, (S,S)-2-[1-Carboxy-2-(3-naphthalen-1-yl-phenyl)-ethylamino]-4-methyl-pentanoic acid]: the Ki under setting [1] was over 500 nM.
Still for that read-out and setting: to `CCOC(=O)[C@H](Cc1cncn1Cc1cc(Cl)cc(Cl)c1)N[C@@H](CC(C)C)C(=O)O` [MY, (S,S) 2-{2-[3-(3,5-Dichloro-benzyl)-3H-imidazol-4-yl]-1-ethoxycarbonyl-ethylamino}-4-methyl-pentanoic acid] belongs 100 to 500 nM; to `CC(C)C[C@@H](N[C@H](Cc1cncn1Cc1cc(Cl)cc(Cl)c1)C(=O)O)C(=O)O` [MZ, (R,R)-2-{1-Carboxy-2-[3-(3,5-dichloro-benzyl)-3H-imidazol-4-yl]-ethylamino}-4-methyl-pentanoic acid], 100 to 500 nM; to `CC(C)C[C@H](N[C@@H](Cc1cccc(OCc2cc(F)cc(F)c2)c1)C(=O)O)C(=O)O` [NA, 2-[1-Carboxy-2-[3-(3,5-difluoro-benzyloxy)-phenyl]-ethylamino]-4-methyl-pentanoic acid], 100 to 500 nM.
For the compound `C=CCOc1cccc(C[C@H](N[C@@H](CC(C)C)C(=O)O)C(=O)O)c1` [NB, S,S-2-[2-(3-Allyloxy-phenyl)-1-carboxy-ethylamino]-4-methyl pentanoic acid], the Ki under setting [1] is 100 to 500 nM.
On the same count and under the same terms, to `CC(C)C[C@H](N[C@@H](CN1CCN(c2cc(F)cc(F)c2)C1=O)C(=O)O)C(=O)O` [NC, 2-{1-Carboxy-2-[3-(3,5-difluoro-phenyl)-2-oxo-imidazolidin-1-yl]-ethylamino}-4-methyl-pentanoic acid] belongs over 500 nM; to `CC(C)C[C@H](N[C@@H](CNC(=O)c1cc2cc(Cl)ccc2[nH]1)C(=O)O)C(=O)O` [ND, 2-{1-Carboxy-2-[(5-chloro-1H-indole-2-carbonyl)-amino]-ethylamino}-4-methyl-pentanoic acid], over 500 nM.
Turning to `CC(C)C[C@H](N[C@@H](Cc1ccc(-c2ccsc2)cc1)C(=O)O)C(=O)O` [NF, (S,S)-2-[1-Carboxy-2-(4-thiophen-3-yl-phenyl)-ethylamino]-4-methyl-pentanoic acid], the Ki was under 100 nM under setting [1] and 50 to 100 nM under setting [2].
For the compound `CC(C)C[C@H](N[C@@H](Cc1ccc(-c2cc(Cl)cc(Cl)c2)cc1)C(=O)O)C(=O)O` [NG, (S,S)-2-[1-Carboxy-2-(3′,5′-dichloro-biphenyl-4-yl)-ethylamino]-4-methyl-pentanoic acid], the Ki reads like this: under setting [1], under 100 nM; under setting [2], under 50 nM.
For `Cc1ccc(-c2ccc(C[C@H](N[C@@H](CC(C)C)C(=O)O)C(=O)O)cc2)cc1` [NH, (S,S)-2-[1-Carboxy-2-(4′-methyl-biphenyl-4-yl)-ethylamino]-4-methyl-pentanoic acid], in that order: under 100 nM and under 50 nM.
With `CC(C)C[C@H](N[C@@H](Cc1cncn1Cc1ccc(I)cc1)C(=O)O)C(=O)O` [NI, 2-[1-Carboxy-2-[3-(4-iodobenzyl)-3H-imidazol-4-yl]-ethylamino]-4-methyl-pentanoic acid], the Ki under setting [1] was under 100 nM and the Ki under setting [2] was under 50 nM.
Regarding `CC(C)C[C@H](N[C@@H](Cc1cncn1Cc1cc(F)cc(F)c1)C(=O)O)C(=O)O` [NJ, (S,S) 2-{1-Carboxy-2-[3-(3,5-difluoro-benzyl)-3H-imidazol-4-yl]-ethylamino}-4-methyl-pentanoic acid], the Ki by setting is: under setting [1], under 100 nM; under setting [2], under 50 nM.
Turning to `CC(C)C[C@H](N[C@@H](Cn1ccn(CCc2ccc(F)cc2)c1=O)C(=O)O)C(=O)O` [NK, 2-(1-Carboxy-2-[3-[2-(4-fluoro-phenyl)-ethyl]-2-oxo2,3-dihydro-imidazol-1-yl)-ethylamino]-4-methyl-pentanoic acid], the Ki under setting [1] lay in the range of 100 to 500 nM.
With `CC(C)C[C@H](N[C@@H](Cn1ccn(CC2CCCCC2)c1=O)C(=O)O)C(=O)O` [NL, 2-[1-Carboxy-2-(3-cyclohexylmethyl-2-oxo-2,3-dihydro-imidazol-1-yl)-ethylamino]-4-methyl-pentanoic acid], under setting [1], the Ki was in the range of 100 to 500 nM.
In the case of `CC(C)C[C@H](N[C@@H](Cc1cncn1Cc1cc(Cl)cc(Cl)c1)C(=O)O)C(=O)OC(C)(C)C` [NM, 2-[1-Carboxy-2-[3-(3,5-dichloro-benzyl)-3H-imidazol-4-yl]-ethylamino)4-methyl-pentanoic acidtert-butyl ester], the Ki is under 100 nM under setting [1] and under 50 nM under setting [2].
Take `Cc1ccc(-c2ccc(C[C@H](N[C@@H](CC(C)C)C(=O)O)C(=O)O)o2)cc1` [NO, (S,S)-2[1-Carboxy-2-(5-p-tolyl-furan-2-yl)-ethylamino]-4-methyl-pentanoic acid]: the Ki under setting [1] was in the range of 100 to 500 nM.
For `CC(C)C[C@H](N[C@@H](Cn1ccn(CCc2cccc(F)c2)c1=O)C(=O)O)C(=O)O` [NP, 2-(1-Carboxy-2-{3-[2-(3-fluoro-phenyl)-ethyl]-2-oxo2,3-dihydro-imidazol-1-yl]-ethylamino)-4-methyl-pentanoic acid], under setting [1], the Ki lay within 100 to 500 nM.
